Results published in patent US7439396B2, “Pharmaceutical/cosmetic compositions comprising novel ligands that activate RAR receptors” (Galderma Research & Development, priority 2003, dated 2008).

Experiments:
Type in all cases: cell-based
RAR beta = target: T1, RAR beta (Homo sapiens, UniProt P10826); test: Transactivation test, HeLa cells stably transfected with RAR beta ER-DBD and ERE-luciferase reporter; settings: for AC50: at the reference ligand concentration that gives 80% activation; for Kd: crossed curves against reference antagonist, Schild regression, read-out: RAR beta Kd app
T1 sequence (P10826 183-417 limits assumed): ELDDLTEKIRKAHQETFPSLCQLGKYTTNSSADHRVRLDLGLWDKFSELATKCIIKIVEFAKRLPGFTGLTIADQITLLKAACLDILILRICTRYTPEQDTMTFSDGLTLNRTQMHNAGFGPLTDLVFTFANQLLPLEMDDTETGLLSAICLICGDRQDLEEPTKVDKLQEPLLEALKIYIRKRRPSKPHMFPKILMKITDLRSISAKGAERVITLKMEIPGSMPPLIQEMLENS
Description: (§1) The activation of receptors with an agonist (activator) in HeLa cells leads to the expression of a reporter gene, luciferase, which, in the presence of a substrate, generates light. The activation of the receptors may thus be measured by quantifying the luminescence produced after incubating the cells in the presence of a reference antagonist. The activating products displace the antagonist from its site, thus permitting activation of the receptor. The activity is measured by quantifying the increase in light produced. This measurement makes it possible to determine the activating activity of the compounds according to the invention.
(§2) In this study, a constant is determined which is the affinity of the molecule for the receptor. Since this value can fluctuate depending on the basal activity and the expression of the receptor, it is referred to as the Kd apparent (KdApp).
(§3) To determine this constant, “crossed curves” of the test product against a reference antagonist, 4-(5,5-dimethyl-8-p-tolyl-5,6-dihydro-2-naphthalen-2-ylethynyl)benzoic acid, are performed in 96-well plates. The test product is used at 10 concentrations and the reference antagonist at 7 concentrations. In each well, the cells are in contact with a concentration of the test product and a concentration of the reference antagonist, 4-(5,5-dimethyl-8-p-tolyl-5,6-dihydro-2-naphthalen-2-ylethynyl)benzoic acid. Measurements are also taken for the total agonist (4-[2-(5,5,8,8-tetramethyl-5,6,7,8-tetrahydro-2-naphthyl)propenyl]benzoic acid) and inverse agonist, 4-{(E)-3-[4-(4-tert-butylphenyl)-5,5,8,8-tetramethyl-5,6,7,8-tetrahydro-2-naphthyl]-3-oxopropenyl}benzoic acid, controls.
(§4) These crossed curves make it possible to determine the AC50 values (concentration at which 50% activation is observed) for the reference ligand at various concentrations of test product. These AC50 values are used to calculate the Schild regression by plotting a straight line corresponding to the Schild equation (“Quantitation in Receptor Pharmacology” Terry P. Kenakin, Receptors and Channels, 2001, 7, 371-385).
(§5) In the case of an agonist, an AC50 value (concentration that gives 50% of the activity) is calculated by plotting the curve of the product at the concentration of the reference ligand that gives 80% activation.
(§6) The HeLa cell lines used are stable transfectants containing the plasmids ERE-μGlob-Luc-SV-Neo (reporter gene) and RAR (α, β, γ) ER-DBD-puro. These cells are inoculated into 96-well plates at a rate of 10 000 cells per well in 100 μl of DMEM medium without phenol red, and supplemented with 10% defatted calf serum. […]
(§7) The culture medium is removed by turning over and 100 μl of a 1:1 PBS/luciferin mixture is added to each well. After 5 minutes, the plates are read using the luminescence reader.

RAR gamma = target: T2, RAR gamma (Homo sapiens, UniProt P13631); test: Transactivation test, HeLa cells stably transfected with RAR gamma ER-DBD and ERE-luciferase reporter; settings: for AC50: at the reference ligand concentration that gives 80% activation; for Kd: crossed curves against reference antagonist, Schild regression, read-out: RAR gamma Kd app
T2 sequence (P13631 185-419 limits assumed): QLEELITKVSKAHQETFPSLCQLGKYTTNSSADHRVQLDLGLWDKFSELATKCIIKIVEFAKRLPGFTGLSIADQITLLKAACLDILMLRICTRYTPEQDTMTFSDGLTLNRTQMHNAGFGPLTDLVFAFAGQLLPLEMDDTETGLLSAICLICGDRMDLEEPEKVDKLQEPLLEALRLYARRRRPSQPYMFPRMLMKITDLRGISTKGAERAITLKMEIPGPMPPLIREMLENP
Description: as §1, §2, §3, §4, §5, §6, §7

RAR alpha = target: T3, RAR alpha (Homo sapiens, UniProt P10276); test: Transactivation test, HeLa cells stably transfected with RAR alpha ER-DBD and ERE-luciferase reporter
T3 sequence (P10276 183-417 limits assumed): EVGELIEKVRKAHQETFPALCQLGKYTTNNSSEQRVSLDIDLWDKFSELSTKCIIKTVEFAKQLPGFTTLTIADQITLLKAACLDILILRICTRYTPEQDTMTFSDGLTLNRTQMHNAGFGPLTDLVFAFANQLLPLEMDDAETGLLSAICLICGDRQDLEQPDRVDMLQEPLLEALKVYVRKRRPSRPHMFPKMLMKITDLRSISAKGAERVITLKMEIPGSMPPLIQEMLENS
Description: as §1
In this study, a constant is determined which is the affinity of the molecule for the receptor. […]
as §4
In the case of an agonist, an AC50 value (concentration that gives 50% of the activity) is calculated by plotting the curve of the product at the concentration of the reference ligand that gives 80% activation. […]

Row | SMILES | AC50 (RAR beta) | Kd (RAR beta) | AC50 (RAR gamma) | Kd (RAR gamma) | AC50 (RAR alpha; at the reference ligand concentration that gives 80% activation) | Kd (RAR alpha; crossed curves against reference antagonist, Schild regression, read-out: RAR alpha Kd app)
1 | CCN(CC)c1ccc(C(COc2ccc(C(=O)O)cc2)=NO)cc1C(C)(C)C [Ex 1, 4-[2-(3-tert-Butyl-4-diethylaminophenyl)-2-hydroxyiminoethoxy]benzoic acid] | 2500 nM | 500 nM | 80 nM | 60 nM |  | 
2 | CCN(CC)c1ccc(C(COc2ccc(C(=O)O)c(O)c2)=NO)cc1C(C)(C)C [Ex 2, 4-[2-(3-tert-Butyl-4-diethylaminophenyl)-2-hydroxyiminoethoxy]-2-hydroxybenzoic acid] | 1000 nM | 500 nM | 4 nM | 4 nM | 5000 nM | 5000 nM
